Source: paper PMC3203539 (2011)
Where two headings read alike, the source gives them in different places.

Tests used:
[1] = molecular target: T1, Sth1 (ATPase subunit of RSCt, trimeric minimal RSC) (Saccharomyces cerevisiae, UniProt P32597); assay type: binding
T1 sequence (P32597 301-1097): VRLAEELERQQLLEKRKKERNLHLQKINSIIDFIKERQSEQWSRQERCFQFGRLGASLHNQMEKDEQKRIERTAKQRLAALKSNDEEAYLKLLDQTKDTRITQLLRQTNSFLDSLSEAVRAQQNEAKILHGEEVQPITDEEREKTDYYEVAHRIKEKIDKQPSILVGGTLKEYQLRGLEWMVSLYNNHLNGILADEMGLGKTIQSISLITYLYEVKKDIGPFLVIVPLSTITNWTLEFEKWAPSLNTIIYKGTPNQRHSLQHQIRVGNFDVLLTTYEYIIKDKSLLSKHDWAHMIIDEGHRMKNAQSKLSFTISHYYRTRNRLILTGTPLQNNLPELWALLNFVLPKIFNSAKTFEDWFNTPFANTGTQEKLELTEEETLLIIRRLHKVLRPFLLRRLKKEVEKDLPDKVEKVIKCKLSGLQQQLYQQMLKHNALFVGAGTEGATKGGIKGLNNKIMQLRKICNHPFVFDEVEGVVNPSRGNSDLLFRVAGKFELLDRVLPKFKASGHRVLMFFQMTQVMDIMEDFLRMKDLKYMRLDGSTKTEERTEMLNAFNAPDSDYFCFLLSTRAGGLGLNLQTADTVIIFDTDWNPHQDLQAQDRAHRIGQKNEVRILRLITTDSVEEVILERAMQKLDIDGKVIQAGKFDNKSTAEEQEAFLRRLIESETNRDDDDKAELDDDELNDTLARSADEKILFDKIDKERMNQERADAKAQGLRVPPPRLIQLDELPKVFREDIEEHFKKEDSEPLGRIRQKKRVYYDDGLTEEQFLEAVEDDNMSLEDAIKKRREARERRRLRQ
T1 sequence (Q12406 1-477 partner): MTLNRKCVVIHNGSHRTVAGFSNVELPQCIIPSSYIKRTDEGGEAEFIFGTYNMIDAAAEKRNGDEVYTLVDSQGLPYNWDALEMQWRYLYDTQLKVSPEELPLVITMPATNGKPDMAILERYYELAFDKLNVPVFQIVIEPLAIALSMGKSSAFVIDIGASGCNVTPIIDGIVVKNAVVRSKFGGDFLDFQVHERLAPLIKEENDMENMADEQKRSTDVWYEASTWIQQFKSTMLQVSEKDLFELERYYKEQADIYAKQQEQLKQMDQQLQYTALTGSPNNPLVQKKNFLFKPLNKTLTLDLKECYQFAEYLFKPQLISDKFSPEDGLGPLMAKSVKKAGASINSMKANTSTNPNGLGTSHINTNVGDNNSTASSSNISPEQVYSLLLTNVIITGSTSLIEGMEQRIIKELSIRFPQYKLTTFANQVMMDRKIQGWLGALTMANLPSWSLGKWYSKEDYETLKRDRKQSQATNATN
T1 sequence (Q05123 1-467 partner): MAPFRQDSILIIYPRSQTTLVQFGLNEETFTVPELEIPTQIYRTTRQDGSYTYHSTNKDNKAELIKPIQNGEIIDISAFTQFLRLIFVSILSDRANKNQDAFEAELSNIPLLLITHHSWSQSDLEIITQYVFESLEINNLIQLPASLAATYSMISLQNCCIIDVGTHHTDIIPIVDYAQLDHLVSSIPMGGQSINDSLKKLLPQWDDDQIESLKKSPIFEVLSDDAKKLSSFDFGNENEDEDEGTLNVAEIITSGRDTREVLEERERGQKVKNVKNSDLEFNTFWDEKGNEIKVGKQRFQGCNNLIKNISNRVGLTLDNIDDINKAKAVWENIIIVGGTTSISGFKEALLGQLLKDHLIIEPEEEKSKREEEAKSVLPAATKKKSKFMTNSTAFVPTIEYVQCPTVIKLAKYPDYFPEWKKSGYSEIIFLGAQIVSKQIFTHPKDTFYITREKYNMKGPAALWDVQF

[2] = molecular target: T1, Sth1 (ATPase subunit of RSCt, trimeric minimal RSC); assay type: binding; remark: listed apart in the source

| SMILES | Kd [1] [µM] | Kd [2] [µM] |
| --- | --- | --- |
| Nc1ncnc2c1ncn2[C@@H]1O[C@H](COP(=O)(O)OP(=O)(O)O)[C@@H](O)[C@H]1O [ADP] | 14 ± 4 |  |
| Nc1ncnc2c1ncn2[C@@H]1O[C@H](COP(=O)(O)OP(=O)(O)NP(=O)(O)O)[C@@H](O)[C@H]1O [AMP-PNP] |  | 72 ± 6 |
